How the values were obtained:
H929 cells [1] = assay: Cytochrome c release in H929 cells; type: cell-based, human; conditions: intact H929 cells, within 4 h
Method: (§1) Figure 4 Indole-2-carboxylic acids induce the hallmarks of apoptosis in MCL-1-dependent cancer cell line H929. (a) Digitonin-permeabilized H929 cells were treated with 10 μM BH3 peptides for 4 h, and intact H929 cells were incubated with increasing concentrations (0.1–10 μM) of A-1208746 for 4 h before assessing the levels of cytochrome c released into the cytosol. (b) H929 and RS4;11 cells were incubated with increasing concentrations of MCL-1 inhibitors or the BCL-2-selective inhibitor ABT-199 (venetoclax) for 48 h before determining cell viability. Cell killing IC50s are plotted with each value representing the mean of three separate experiments. […]
(§2) H929 cells were cultured in RPMI 1640 (Invitrogen Corp., Grand Island, NY, USA) supplemented with 10% fetal bovine serum (Invitrogen), 1% sodium pyruvate, 25 mM HEPES, 4.5 g/l glucose, and 1% penicillin/streptomycin (Sigma) and maintained in a humidified chamber at 37 °C containing 5% CO2. […] Following treatment, the hallmarks of apoptosis (activation of caspase-3/-7, mitochondrial membrane depolarization, and phosphatidylserine externalization) were measured using the IntelliCyt (Albuquerque, NM, USA) MultiCyt 4-Plex Apoptosis Screening Kit according to the manufacturer's instructions and read by flow cytometry using a HTFC screening system (IntelliCyt). […] Data were expressed as the percentage of singlet cells. […]

H929 cells [2] = assay: Cell viability, H929 cells; type: cell-based, human; conditions: H929, 48 h
Method: as §1, with “experiments. Error bars represent the S.E.M. (c) H929 cells were incubated with increasing concentrations of MCL-1 inhibitors in the presence or absence of the pan-caspase inhibitor QVD (100 μM) for 4 h before assessing caspase-3/-7 activation, mitochondrial membrane polarization, and the exposure of phosphatidylserine.” for “experiments.”
(§3) Adherent cell lines were seeded at 50 000 cells per well in 96-well plates and treated for 48 h with compounds diluted in half-log steps starting at 30 μM and ending at 0.001 μM. […] Effects on proliferation and viability were determined using CellTiter-Glo reagent from Promega (Madison, WI, USA) according to the manufacturer's instructions. IC50 values were determined by non-linear regression analysis of the concentration response data.

RS4;11 cell line = assay: Cell viability, RS4;11 cells; type: cell-based; conditions: RS4;11, 48 h
Method: as §1, with “experiments. Error bars represent the S.E.M. (c) H929 cells were incubated with increasing concentrations of MCL-1 inhibitors in the presence or absence of the pan-caspase inhibitor QVD (100 μM) for 4 h before assessing caspase-3/-7 activation, mitochondrial membrane polarization, and the exposure of phosphatidylserine.” for “experiments.”
as §3

H929 cells [3] = assay: Hallmarks of apoptosis in H929 cells (caspase-3/-7, mitochondrial membrane depolarization, phosphatidylserine); type: cell-based, human; conditions: H929, 4 h
Method: as §1, §2

Bak-/- Bax-/- MEFs = assay: Cell viability, Bak-/- Bax-/- murine embryonic fibroblasts; type: cell-based; conditions: 48 h
Method: Supplementary Figure 4. […] Murine embryonic fibroblasts (MEFs) lacking Bak and Bax were treated with increasing concentrations of A-1155905, A-1208746, A-1210477, staurosporine or bortezomib for 48 h before assessing cell viability. Data represent the mean of triplicate experiments and error bars indicate the standard error of the mean.

[4] = test system: MCL-1(3B)–BIMS(2A)ΔC complexes; assay: Live cell redistribution assay, eGFP-MCL-1(3B) and mCherry-BIMS(2A)ΔC, T-REx-293 cells; type: cell-based; conditions: T-REx-293 cells expressing MCL-1(3B)
Source text: To further rule out potential artifacts associated with lysate detergents that can influence interactions between BCL-2 family proteins,[47] we employed a recently described real-time imaging method to assess the effects on BCL-2 family complexes in live cells.[48] Briefly, interacting pairs of BCL-2 family proteins are expressed as fluorescent fusion proteins at stoichiometric levels from a bicistronic expression module integrated into a single site of the genome in T-REx-293 cells. Under basal conditions, both proteins localize primarily to the mitochondria, where the anti-apoptotic proteins (enhanced green fluorescent protein (eGFP)-BCL-2, eGFP-BCL-XL, or eGFP-MCL-1(3B)) sequester their pro-apoptotic counterparts (mCherry-BAD or mCherry-BIMS(2A)ΔC, the latter being a specific binder of MCL-1[48], [49]). Disruption of these complexes can be tracked by measuring the amount of mCherry-labeled BH3-only protein localized specifically to the mitochondria. […]
(§4) Figure 3 A-1210477 inhibits MCL-1-BIM complexes in live cells. […] The decrease in amount of mCherry-BH3 protein localized to the mitochondria was quantified as a function of time as described in the Materials and Methods, normalized to DMSO control, and fitted to a single exponential decay. Each data point represents the mean change in intensity calculated from 10 fields of view, with error bars indicating the S.E.M. (b) T-REx-293 cells stably expressing eGFP-MCL-1(3B) and mCherry-BIMS(2A)ΔC were treated with 50 μM ABT-737 or increasing concentrations (1–25 μM) A-1210477 for 100 min. The decrease in amount of mCherry-BIMS(2A)ΔC localized to the mitochondria was quantified as in panel (a). (c) Representative fluorescence microscopic images of T-REx-293 cells stably expressing eGFP-BCL-2 family and interacting mCherry-BH3-only proteins before and after 300 min of treatment with 10 μM A-1210477 or (d) ABT-737. […]
Experiments were carried out as detailed previously.[48] […] Therefore, the entire cell was identified with a single intensity threshold applied to the eGFP fluorescence, excluding areas identified as mitochondria. […]

BCL-2–BAD complexes = target: T1, BCL-2–BAD complexes (Homo sapiens, UniProt P10415); assay: Live cell redistribution assay, eGFP-BCL-2 and mCherry-BAD, T-REx-293 cells; type: cell-based; conditions: 10 μM, 300 min
T1 construct: expressed in transfected cells; host or cells: T-REx-293, bicistronic expression module integrated at a single genomic site
T1 sequence (P10415 whole entry, one chain of several): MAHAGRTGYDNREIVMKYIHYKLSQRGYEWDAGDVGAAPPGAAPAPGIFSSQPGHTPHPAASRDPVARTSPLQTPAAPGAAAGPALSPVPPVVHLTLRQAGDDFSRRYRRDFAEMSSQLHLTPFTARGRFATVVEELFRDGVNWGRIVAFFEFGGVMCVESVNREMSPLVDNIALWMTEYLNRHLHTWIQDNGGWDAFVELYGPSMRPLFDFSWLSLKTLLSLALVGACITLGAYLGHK
Source text: (§5) To further rule out potential artifacts associated with lysate detergents that can influence interactions between BCL-2 family proteins,[47] we employed a recently described real-time imaging method to assess the effects on BCL-2 family complexes in live cells.[48] Briefly, interacting pairs of BCL-2 family proteins are expressed as fluorescent fusion proteins at stoichiometric levels from a bicistronic expression module integrated into a single site of the genome in T-REx-293 cells. […]
as §4

BCL-XL–BAD complexes = target: T2, BCL-XL–BAD complexes (Homo sapiens, UniProt Q07817); assay: Live cell redistribution assay, eGFP-BCL-XL and mCherry-BAD, T-REx-293 cells; type: cell-based; conditions: 10 μM, 300 min
T2 construct: expressed in transfected cells; host or cells: T-REx-293, bicistronic expression module integrated at a single genomic site
T2 sequence (Q07817 whole entry, one chain of several): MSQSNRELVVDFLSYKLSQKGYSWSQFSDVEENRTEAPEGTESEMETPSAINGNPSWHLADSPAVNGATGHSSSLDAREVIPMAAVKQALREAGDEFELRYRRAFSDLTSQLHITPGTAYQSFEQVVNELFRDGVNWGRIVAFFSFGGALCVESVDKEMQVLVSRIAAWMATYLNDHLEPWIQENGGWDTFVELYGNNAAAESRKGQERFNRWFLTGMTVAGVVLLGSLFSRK
Source text: as §5, §4

BxPC-3 cells = assay: Navitoclax / A-1210477 combination cell viability, BxPC-3 cells; type: cell-based; conditions: BxPC-3, up to 3–5 μM, 48 h
Method: (§6) Figure 6 A-1210477 synergizes with navitoclax to kill hematological and solid tumor cell lines. BxPC-3, EJ-1, H23, and OPM-2 cells were treated with increasing concentrations of navitoclax in the presence or absence of increasing concentrations of A-1210477 for 48 h before assessing cell viability. All data points represent the means of triplicate experiments, with error bars indicating the S.E.M. TEXT PRINTED IN THE PICTURE: A-1210477 + navitoclax: Bliss sum (BxPC-3): 716; Bliss sum (EJ-1): 464; Bliss sum (H23): 76; Bliss sum (OPM-2): 946 DOUBTS OF THE COPYIST ABOUT THIS PICTURE: The Bliss sums apply to the combination of A-1210477 and navitoclax. The picture prints the two names separately (legend heading and axis title), not as one joined label.
(§7) Adherent cell lines were seeded at 50 000 cells per well in 96-well plates and treated for 48 h with compounds diluted in half-log steps starting at 30 μM and ending at 0.001 μM. Multiple myeloma cell lines were seeded at 15 000–20 000 cells per well and treated similarly. Effects on proliferation and viability were determined using CellTiter-Glo reagent from Promega (Madison, WI, USA) according to the manufacturer's instructions. IC50 values were determined by non-linear regression analysis of the concentration response data.

EJ-1 cells = assay: Navitoclax / A-1210477 combination cell viability, EJ-1 cells; type: cell-based; conditions: EJ-1, up to 3–5 μM, 48 h
Method: as §6, §7

H23 cells = assay: Navitoclax / A-1210477 combination cell viability, H23 cells; type: cell-based, human; conditions: H23, up to 3–5 μM, 48 h
Method: as §6, §7

OPM-2 cells = assay: Navitoclax / A-1210477 combination cell viability, OPM-2 cells; type: cell-based; conditions: OPM-2, up to 3–5 μM, 48 h
Method: as §6, §7

SMILES: Cc1nn(C)c(COc2ccc(N3CCN(S(C)(=O)=O)CC3)cc2)c1-c1cccc2c(CCCOc3cccc4ccccc34)c(C(=O)O)n(CCN3CCOCC3)c12 [A-1208746]
- lowest concentration at which cytochrome c was observed in cytosolic fractions (H929 cells [1]): 3 µM
- cell killing IC50 (H929 cells [2]): low-μM range
- effect on cell viability (RS4;11 cell line): no effect
- induction of hallmarks of apoptosis (mitochondrial membrane depolarization, caspase-3/-7 activation, phosphatidylserine externalization) (H929 cells [3]): induced the hallmarks of apoptosis
- killing of Bak-/- Bax-/- MEFs (Bak-/- Bax-/- MEFs): do not Kill

SMILES: CN(C)CC[C@H](CSc1ccccc1)Nc1ccc(S(=O)(=O)NC(=O)c2ccc(N3CCN(Cc4ccccc4-c4ccc(Cl)cc4)CC3)cc2)cc1[N+](=O)[O-] [ABT-737, reference compound]
- redistribution of mCherry-BIMS(2A)ΔC from mitochondria [4]: no effect
- redistribution of mCherry-BAD associated with BCL-2 (BCL-2–BAD complexes): induced the redistribution of mCherry-BAD
- redistribution of mCherry-BAD associated with BCL-XL (BCL-XL–BAD complexes): induced the redistribution of mCherry-BAD

SMILES: CC1(C)CCC(c2ccc(Cl)cc2)=C(CN2CCN(c3ccc(C(=O)NS(=O)(=O)c4ccc(N[C@H](CCN5CCOCC5)CSc5ccccc5)c(S(=O)(=O)C(F)(F)F)c4)cc3)CC2)C1 [navitoclax, reference compound]
- single agent effect on cell viability (BxPC-3 cells): little or no effect
- single agent effect on cell viability (EJ-1 cells): little or no effect
- single agent effect on cell viability (H23 cells): little or no effect
- single agent effect on cell viability (OPM-2 cells): little or no effect
